The source of these data is ChEMBL document CHEMBL1909508, “Structure-activity relationship study of arylsulfonylimidazolidinones as anticancer agents” (Bioorg Med Chem Lett, 2011).

Molecules are shown by their SMILES.

Test [1] in a line: Inhibition of tubulin polymerization.
Test [2] deals with HCT-116. Kind of test: Cytotoxicity against human HCT116 cells by MTT assay. The format is functional, cell-based.
For test [3], the system named is A549. Kind of test: Cytotoxicity against human A549 cells by MTT assay. The class given is functional, cell-based. (In general: Tetrazolium dyes change colour on reduction, which living cells bring about.)
Test [4] relates to NCI-H460. Kind of test: Cytotoxicity against human NCI-H460 cells by MTT assay. The format is functional, cell-based.

Broadly, the IC50 is the point on the concentration scale where inhibition reaches its midpoint. As to `CCOC(=O)Nc1ccc(S(=O)(=O)N2C[C@H](c3ccccc3)NC2=O)cc1C`, the IC50 in test [1] is 6000 nM; in test [2], 70 nM; in test [3], 50 nM; in test [4], 70 nM.

Consider `CCOC(=O)Nc1ccc(S(=O)(=O)N2C[C@H](c3ccccc3)NC2=O)cc1CC`, for which the half-maximal inhibitory concentration (IC50) in test [2] came to 70 nM; in test [3], 60 nM; in test [4], 70 nM.

Consider `CCOC(=O)Nc1ccc(S(=O)(=O)N2C[C@H](c3ccccc3)NC2=O)cc1F`, for which the concentration for half-maximal inhibition (IC50) is 5000 nM in test [2], 3800 nM in test [3] and 4500 nM in test [4].

Regarding `CCOC(=O)Nc1ccc(S(=O)(=O)N2C[C@H](c3ccccc3)NC2=O)cc1Cl`, the IC50 in test [2] amounted to 200 nM; in test [3], 20 nM; in test [4], 20 nM.

For the compound `CCc1cc(S(=O)(=O)N2C[C@H](c3ccccc3)NC2=O)ccc1NC(=O)OC`, the 50% inhibitory concentration (IC50) in test [2] was 200 nM; in test [3] it was 250 nM; in test [4], 300 nM.

On to `CCCOC(=O)Nc1ccc(S(=O)(=O)N2C[C@H](c3ccccc3)NC2=O)cc1CC`, for which the IC50 in test [2], in test [3] and in test [4] was 60 nM throughout.

For the compound `CCc1cc(S(=O)(=O)N2C[C@H](c3ccccc3)NC2=O)ccc1NC(=O)OC(C)C`, the half-inhibitory concentration (IC50) in test [2], in test [3] and in test [4] was 60 nM throughout.

For `CCCCOC(=O)Nc1ccc(S(=O)(=O)N2C[C@H](c3ccccc3)NC2=O)cc1CC`, the IC50 in test [2], in test [3] and in test [4] was 200 nM throughout.

In the case of `CCc1cc(S(=O)(=O)N2C[C@H](c3ccccc3)NC2=O)ccc1NC(=O)OCC(C)C`, the concentration for half-maximal inhibition (IC50) stood at 60 nM in test [2], 70 nM in test [3] and 80 nM in test [4].

`CCc1cc(S(=O)(=O)N2C[C@H](c3ccccc3)NC2=O)ccc1NC(=O)NC(C)C`: the results for the IC50 in test [2], in test [3] and in test [4] were 60 nM, 100 nM and 70 nM, respectively.

Turning to `CCc1cc(S(=O)(=O)N2C[C@H](c3ccccc3)NC2=O)ccc1NC(=O)NC1CCCCC1`, the half-maximal inhibitory concentration (IC50) is 300 nM in test [2], 500 nM in test [3] and 300 nM in test [4].

Take `CCc1cc(S(=O)(=O)N2C[C@H](c3ccccc3)NC2=O)ccc1NC(=O)c1ccc([N+](=O)[O-])cc1`: the IC50 in test [2] came out at 500 nM; in test [3], 700 nM; in test [4] it was 800 nM.

`CCc1cc(S(=O)(=O)N2C[C@H](c3ccccc3)NC2=O)ccc1NC(=O)c1ccc(N)cc1`: the figures for the IC50 in test [2], in test [3] and in test [4] were 460 nM, 220 nM and 670 nM, respectively.

For the compound `CCOC(=O)Nc1ccc(S(=O)(=O)N2C[C@H](c3ccccc3)NC2=O)c(C)c1C`, the figures for the IC50 in test [2], in test [3] and in test [4] were 350 nM, 300 nM and 300 nM, respectively.

`CCOC(=O)Nc1c(C)cc(S(=O)(=O)N2C[C@H](c3ccccc3)NC2=O)cc1C`: the concentration for half-maximal inhibition (IC50) in test [2], in test [3] and in test [4] was more than 10000 nM throughout.

For the compound `CCOC(=O)Nc1ccc(S(=O)(=O)N2C(=O)N[C@@H](c3ccccc3)C2C)cc1C` (some centres not stated), the results for the IC50 in test [2], in test [3] and in test [4] were 5500 nM, 5000 nM and 5000 nM, respectively.

`CCOC(=O)Nc1ccc(S(=O)(=O)N2C(=O)N[C@@H](c3ccccc3)C2C)cc1Cl` (some centres not stated): the half-inhibitory concentration (IC50) in test [2] was determined as 5500 nM; in test [3], 6000 nM; in test [4], 6000 nM.

For `Cc1cc(S(=O)(=O)N2C(=O)N[C@@H](c3ccccc3)C2C)ccc1NC(=O)c1ccc([N+](=O)[O-])cc1` (some centres not stated), the IC50 in test [2], in test [3] and in test [4] was more than 10000 nM throughout.

With `Cc1cc(S(=O)(=O)N2C(=O)N[C@@H](c3ccccc3)C2C)ccc1NC(=O)c1ccc(N)cc1` (some centres not stated), the concentration for half-maximal inhibition (IC50) in test [2], in test [3] and in test [4] was more than 10000 nM each time.

With `CC1[C@H](c2ccccc2)NC(=O)N1S(=O)(=O)c1ccc(NC(=O)c2ccc([N+](=O)[O-])cc2)c(Cl)c1` (some centres not stated), the 50% inhibitory concentration (IC50) in test [2], in test [3] and in test [4] was more than 10000 nM in each case.

In the case of `CC1[C@H](c2ccccc2)NC(=O)N1S(=O)(=O)c1ccc(NC(=O)c2ccc(N)cc2)c(Cl)c1` (some centres not stated), the IC50 in test [2], in test [3] and in test [4] was more than 10000 nM throughout.

For `Nc1ccc(C(=O)Nc2ccc(S(=O)(=O)N3C[C@H](c4ccccc4)NC3=O)cc2Cl)cc1`, the half-maximal inhibitory concentration (IC50) in test [1] came to 5500 nM. In other words, the single-digit micromolar range.

`COc1cccc2c1C(=O)c1c(O)c3c(c(O)c1C2=O)C[C@@](O)(C(=O)CO)C[C@@H]3O[C@H]1C[C@H](N)[C@H](O)[C@H](C)O1` [DOXORUBICIN]: the 50% inhibitory concentration (IC50) in test [2] came to 400 nM; in test [4], 456 nM.
